pEC50, pKi: −log10 of the molar value. Where two headings read alike, the source gives them in different places.
Experiments:
[1] = system: mouse FL5.12 cells transfected with Bcl-XL; assay: FL5.12 cellular assay (cell viability, CellTiter-Glo); format: cell-based; settings: FL5.12 cells transfected with Bcl-XL, IL-3-depleted, 3% FBS assay media, 24 hours, CellTiter-Glo, read-out: FL5.12 Bcl-xL, - IL3, EC 50;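 note: each EC50 determination derived from duplicate measurements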
[2] = target: GST-Bcl-xL (Homo sapiens, UniProt Q07817); settings: read-out: TR-FRET binding Bcl-xL Ki
Sequence of GST-Bcl-xL (Q07817 whole entry): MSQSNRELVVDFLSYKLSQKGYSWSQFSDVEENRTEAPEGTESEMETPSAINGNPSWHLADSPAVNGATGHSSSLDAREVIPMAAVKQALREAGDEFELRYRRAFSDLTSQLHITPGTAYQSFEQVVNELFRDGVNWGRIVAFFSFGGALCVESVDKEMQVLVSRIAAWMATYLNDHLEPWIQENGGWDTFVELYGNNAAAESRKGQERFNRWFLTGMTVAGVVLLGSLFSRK

| SMILES | pEC50 ([1]; Mus musculus) | pKi [2] | pEC50 [1] |
| --- | --- | --- | --- |
| O=C(Nc1nc2ccccc2s1)c1cccc2c1CN(c1ccc(-c3cccc(Cc4ccccc4)c3)c(C(=O)O)n1)CC2 [Example 106, 6-[8-(1,3-benzothiazol-2-ylcarbamoyl)-3,4-dihydroisoquinolin-2(1H)-yl]-3-(3-benzylphenyl)pyridine-2-carboxylic acid] | 6.63 | 10.00 |  |
| O=C(Nc1nc2ccccc2s1)c1cccc2c1CN(c1ccc(-c3cnn(Cc4cccc(O)c4)c3)c(C(=O)O)n1)CC2 [Example 17, 6-[8-(1,3-benzothiazol-2-ylcarbamoyl)-3,4-dihydroisoquinolin-2(1H)-yl]-3-[1-(3-hydroxybenzyl)-1H-pyrazol-4-yl]pyridine-2-carboxylic acid] |  | 7.51 | < 6.00 |
| O=C(Nc1nc2ccccc2s1)c1cccc2c1CN(c1ccc(-c3ccc4c(cnn4Cc4ccccc4)c3)c(C(=O)O)n1)CC2 [Example 153, 6-[8-(1,3-benzothiazol-2-ylcarbamoyl)-3,4-dihydroisoquinolin-2(1H)-yl]-3-(1-benzyl-1H-indazol-5-yl)pyridine-2-carboxylic acid] | 6.23 | 9.52 |  |
| CC(C)(C)OC(=O)N1CCC(Cn2cc(-c3ccc(N4CCc5cccc(C(=O)Nc6nc7ccccc7s6)c5C4)nc3C(=O)O)cn2)CC1 [Example 78, 6-[8-(1,3-benzothiazol-2-ylcarbamoyl)-3,4-dihydroisoquinolin-2(1H)-yl]-3-(1-{[1-(tert-butoxycarbonyl)piperidin-4-yl]methyl}-1H-pyrazol-4-yl)pyridine-2-carboxylic acid] | < 6.00 | 6.42 |  |
| Cc1c(-c2ccc(N3CCc4cccc(C(=O)Nc5nc6ccccc6s5)c4C3)nc2C(=O)O)cnn1CC1CCC(F)(F)CC1 [Example 73, 6-[8-(1,3-benzothiazol-2-ylcarbamoyl)-3,4-dihydroisoquinolin-2(1H)-yl]-3-{1-[(4,4-difluorocyclohexyl)methyl]-5-methyl-1H-pyrazol-4-yl}pyridine-2-carboxylic acid] | 8.10 | 9.05 |  |
| O=C(Nc1nc2ccccc2s1)c1cccc2c1CN(c1ccc(-c3cccc(Oc4ccccc4)c3)c(C(=O)O)n1)CC2 [Example 103, 6-[8-(1,3-benzothiazol-2-ylcarbamoyl)-3,4-dihydroisoquinolin-2(1H)-yl]-3-(3-phenoxyphenyl)pyridine-2-carboxylic acid] |  | 9.22 | < 6.00 |
| O=C(Nc1nc2ccccc2s1)c1cccc2c1CN(c1ccc(-c3cnn(Cc4cccc(N5CCCC5)n4)c3)c(C(=O)O)n1)CC2 [Example 22, 6-[8-(1,3-benzothiazol-2-ylcarbamoyl)-3,4-dihydroisoquinolin-2(1H)-yl]-3-(1-{[6-(pyrrolidin-1-yl)pyridin-2-yl]methyl}-1H-pyrazol-4-yl)pyridine-2-carboxylic acid] | 6.67 | 8.22 |  |
| CC(C)(C)Cn1cc(-c2ccc(N3CCc4cccc(C(=O)Nc5nc6ccccc6s5)c4C3)nc2C(=O)O)cn1 [Example 59, 6-[8-(1,3-benzothiazol-2-ylcarbamoyl)-3,4-dihydroisoquinolin-2(1H)-yl]-3-[1-(2,2-dimethylpropyl)-1H-pyrazol-4-yl]pyridine-2-carboxylic acid] |  | 6.37 | < 6.00 |
| O=C(Nc1nc2ccccc2s1)c1cccc2c1CN(c1ccc(-c3cccc(Oc4ccc([N+](=O)[O-])cc4)c3)c(C(=O)O)n1)CC2 [Example 104, 6-[8-(1,3-benzothiazol-2-ylcarbamoyl)-3,4-dihydroisoquinolin-2(1H)-yl]-3-[3-(4-nitrophenoxy)phenyl]pyridine-2-carboxylic acid] | < 6.00 | 7.85 |  |
| O=C(Nc1nc2ccccc2s1)c1cccc2c1CN(c1ccc(-c3ccnc(OC4CCCCC4)c3)c(C(=O)O)n1)CC2 [Example 139, 6-[8-(1,3-benzothiazol-2-ylcarbamoyl)-3,4-dihydroisoquinolin-2(1H)-yl]-2'-(cyclohexyloxy)-3,4'-bipyridine-2-carboxylic acid] | < 6.00 | 9.40 |  |
| Cc1c(-c2ccc(N3CCc4cccc(C(=O)Nc5nc6ccccc6s5)c4C3)nc2C(=O)O)cnn1CC1CCCC1 [Example 63, 6-[8-(1,3-benzothiazol-2-ylcarbamoyl)-3,4-dihydroisoquinolin-2(1H)-yl]-3-[1-(cyclopentylmethyl)-5-methyl-1H-pyrazol-4-yl]pyridine-2-carboxylic acid] | 7.57 | 8.70 |  |
| O=C(Nc1nc2ccccc2s1)c1cccc2c1CN(c1ccc(-c3cccc(OC4CCCCC4)c3F)c(C(=O)O)n1)CC2 [Example 119, 6-[8-(1,3-benzothiazol-2-ylcarbamoyl)-3,4-dihydroisoquinolin-2(1H)-yl]-3-[3-(cyclohexyloxy)-2-fluorophenyl]pyridine-2-carboxylic acid] |  | > 10.00 | 6.12 |
| Cc1c(-c2ccc(N3CCc4cccc(C(=O)Nc5nc6ccccc6s5)c4C3)nc2C(=O)O)cnn1CC1(N2CCOCC2)CCCCC1 [Example 160, 6-[8-(1,3-benzothiazol-2-ylcarbamoyl)-3,4-dihydroisoquinolin-2(1H)-yl]-3-(5-methyl-1-{[1-(morpholin-4-yl)cyclohexyl]methyl}-1H-pyrazol-4-yl)pyridine-2-carboxylic acid] | 7.85 | > 10.00 |  |
| Cc1c(-c2ccc(N3CCc4cccc(C(=O)Nc5nc6ccccc6s5)c4C3)nc2C(=O)O)cnn1CC1(OCC(=O)N2CCOCC2)CCCCC1 [Example 174, 6-[8-(1,3-benzothiazol-2-ylcarbamoyl)-3,4-dihydroisoquinolin-2(1H)-yl]-3-[5-methyl-1-({1-[2-(morpholin-4-yl)-2-oxoethoxy]cyclohexyl}methyl)-1H-pyrazol-4-yl]pyridine-2-carboxylic acid] | 6.68 | > 10.00 |  |
| O=C(Nc1nc2ccccc2s1)c1cccc2c1CN(c1ccc(-c3cnn(CCc4ccccc4)c3)c(C(=O)O)n1)CC2 [Example 38, 6-[8-(1,3-benzothiazol-2-ylcarbamoyl)-3,4-dihydroisoquinolin-2(1H)-yl]-3-[1-(2-phenylethyl)-1H-pyrazol-4-yl]pyridine-2-carboxylic acid] |  | 7.32 | < 6.00 |
| Cc1c(-c2ccc(N3CCc4cccc(C(=O)Nc5nc6ccccc6s5)c4C3)nc2C(=O)O)cnn1CC1(OCCO)CCCCC1 [Example 169, 6-[8-(1,3-benzothiazol-2-ylcarbamoyl)-3,4-dihydroisoquinolin-2(1H)-yl]-3-(1-{[1-(2-hydroxyethoxy)cyclohexyl]methyl}-5-methyl-1H-pyrazol-4-yl)pyridine-2-carboxylic acid] | 8.00 | > 10.00 |  |
| Cc1c(-c2ccc(N3CCc4cccc(C(=O)Nc5nc6ccccc6s5)c4C3)nc2C(=O)O)ccnc1N(C)c1ccccc1 [Example 143, 6-[8-(1,3-benzothiazol-2-ylcarbamoyl)-3,4-dihydroisoquinolin-2(1H)-yl]-3'-methyl-2'-[methyl(phenyl)amino]-3,4'-bipyridine-2-carboxylic acid] | 7.72 | > 10.00 |  |
| O=C(Nc1nc2ccccc2s1)c1cccc2c1CN(c1ccc(-c3ccn(S(=O)(=O)c4ccccc4)c3)c(C(=O)O)n1)CC2 [Example 128, 6-[8-(1,3-benzothiazol-2-ylcarbamoyl)-3,4-dihydroisoquinolin-2(1H)-yl]-3-[1-(phenylsulfonyl)-1H-pyrrol-3-yl]pyridine-2-carboxylic acid] | < 6.00 | 8.15 |  |

Source: EP2768830B1, “APOPTOSIS-INDUCING AGENTS FOR THE TREATMENT OF CANCER AND IMMUNE AND AUTOIMMUNE DISEASES” (AbbVie Inc., priority 2011, dated 2013)
